# Patent publication US9695155B2, “Herbicidal substituted pyrimidinyloxy benzene compounds” (E. I. DU PONT DE NEMOURS AND COMPANY, priority 2013, dated 2017)
# Experiments:
# [1] = system: galium; test: Test D preemergence; type: in vivo, Galium aparine; settings: Galium, pre-emergence, scale 0-100, read-out: Plant response rating, Galium
# Method in brief: (§1)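 Values are 0–100 visual control ratings (0 none, 100 complete) given 7–21 days after application. Soil for preemergence was silt loam; postemergence plants stood 2–18 cm tall.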
# [2] = system: field poppy; test: Test D preemergence; type: in vivo, Papaver rhoeas; settings: Papaver rhoeas, pre-emergence, scale 0-100, read-out: Plant response rating, Field Poppy
# Method in brief: as §1
# [3] = system: pigweed; test: Test D preemergence; type: in vivo, Amaranthus retroflexus; settings: Amaranthus retroflexus, pre-emergence
# Method in brief: as §1
# [4] = system: spring barley; test: Test D preemergence; type: in vivo, Hordeum vulgare; settings: Hordeum vulgare, pre-emergence, scale 0-100, read-out: Plant response rating, Barley, Spring
# Method in brief: as §1
# [5] = system: winter barley; test: Test D preemergence; type: in vivo, Hordeum vulgare; settings: Hordeum vulgare, pre-emergence, scale 0-100, read-out: Plant response rating, Barley, Winter
# Method in brief: as §1
# [6] = system: canarygrass; test: Test D postemergence; type: in vivo, Phalaris minor; settings: Phalaris minor, post-emergence, scale 0 to 100 (0 no effect, 100 complete control), read-out: Plant response rating, Canarygrass
# Method in brief: as §1
# [7] = system: field poppy; test: Test D postemergence; type: in vivo, Papaver rhoeas; settings: Papaver rhoeas, post-emergence, scale 0 to 100 (0 no effect, 100 complete control), read-out: Plant response rating, Field Poppy
# Method in brief: as §1
# [8] = system: oilseed rape; test: Test D postemergence; type: in vivo, Brassica napus; settings: Brassica napus, post-emergence, scale 0 to 100 (0 no effect, 100 complete control), read-out: Plant response rating, Oilseed Rape
# Method in brief: as §1
# [9] = system: windgrass; test: Test D postemergence; type: in vivo, Apera spica-venti; settings: Apera spica-venti, post-emergence, scale 0 to 100 (0 no effect, 100 complete control), read-out: Plant response rating, Windgrass
# Method in brief: as §1
# [10] = system: cocklebur; test: Test E preemergence; type: in vivo, Xanthium strumarium; settings: for Plant response rating, Cocklebur: scale 0 to 100, 0 no effect, 100 complete control
# Method in brief: (§2)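 Compound in a non-phytotoxic solvent mixture with surfactant was applied preemergence to seeds in silt loam soil, or postemergence to plants 2 to 18 cm tall grown in peat-based potting medium. Plants were kept in a greenhouse for 14 to 21 days, then rated visually against untreated controls on a 0 (no effect) to 100 (complete control) scale.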
# [11] = system: fall panicum; test: Test E postemergence; type: in vivo, Panicum dichotomiflorum; settings: Panicum dichotomiflorum, post-emergence, read-out: Plant response rating, Panicum, Fall
# Method in brief: as §2
# [12] = system: arrowleaf sida; test: Test E postemergence; type: in vivo, Sida rhombifolia; settings: Sida rhombifolia, post-emergence, read-out: Plant response rating, Arrowleaf Sida
# Method in brief: as §2
# [13] = system: dayflower; test: Test E postemergence; type: in vivo, Commelina virginica; settings: Commelina virginica, post-emergence, read-out: Plant response rating, Dayflower, VA
# Method in brief: as §2
# [14] = Postemergence, 31 g ai/ha, scale 0 to 100
# [15] = Postemergence, 62 g ai/ha, scale 0 to 100
# [16] = Postemergence, 125 g ai/ha, scale 0 to 100
# [17] = Postemergence, 250 g ai/ha, scale 0 to 100
# [18] = postemergence, 16 g ai/ha, scale 0 to 100, 0 no effect, 100 complete control
smiles,measurement,setting,value
"N#Cc1cccc(Oc2ncc(Cl)cn2)c1-n1cc(C(F)(F)F)cn1 [Compound 58, 3-[(5-chloro-2-pyrimidinyl)oxy]-2-[4-(trifluoromethyl)-1H-pyrazol-1-yl]benzonitrile]",pest or weed control at 31 g/ha,[1]; 31 g ai/ha,65%
same,pest or weed control at 62 g/ha,[1]; 62 g ai/ha,100%
same,pest or weed control at 125 g/ha,[1]; 125 g ai/ha,100%
same,pest or weed control at 250 g/ha,[1]; 250 g ai/ha,100%
same,pest or weed control at 31 g/ha,[2]; 31 g ai/ha,95%
same,pest or weed control at 62 g/ha,[2]; 62 g ai/ha,100%
same,pest or weed control at 125 g/ha,[2]; 125 g ai/ha,100%
same,pest or weed control at 250 g/ha,[2]; 250 g ai/ha,100%
same,pest or weed control at 31 g/ha,"[3]; 31 g ai/ha, scale 0 (no effect) to 100 (complete control), read-out: Plant response rating, Pigweed",100%
same,pest or weed control at 62 g/ha,"[3]; 62 g ai/ha, scale 0-100, read-out: Plant response rating, Pigweed",100%
same,pest or weed control at 125 g/ha,"[3]; 125 g ai/ha, scale 0-100, read-out: Plant response rating, Pigweed",100%
same,pest or weed control at 250 g/ha,"[3]; 250 g ai/ha, scale 0-100, read-out: Plant response rating, Pigweed",100%
same,plant injury at 31 g/ha,[4]; 31 g ai/ha,10%
same,plant injury at 62 g/ha,[4]; 62 g ai/ha,50%
same,plant injury at 125 g/ha,[4]; 125 g ai/ha,85%
same,plant injury at 250 g/ha,[4]; 250 g ai/ha,100%
same,plant injury at 31 g/ha,[5]; 31 g ai/ha,10%
same,plant injury at 62 g/ha,[5]; 62 g ai/ha,35%
same,plant injury at 125 g/ha,[5]; 125 g ai/ha,80%
same,plant injury at 250 g/ha,[5]; 250 g ai/ha,100%
same,pest or weed control at 31 g/ha,[6]; 31 g ai/ha,35%
same,pest or weed control at 62 g/ha,[6]; 62 g ai/ha,40%
same,pest or weed control at 125 g/ha,[6]; 125 g ai/ha,50%
same,pest or weed control at 250 g/ha,[6]; 250 g ai/ha,70%
same,pest or weed control at 31 g/ha,[7]; 31 g ai/ha,80%
same,pest or weed control at 62 g/ha,[7]; 62 g ai/ha,85%
same,pest or weed control at 125 g/ha,[7]; 125 g ai/ha,100%
same,pest or weed control at 250 g/ha,[7]; 250 g ai/ha,100%
same,plant injury at 31 g/ha,[8]; 31 g ai/ha,55%
same,plant injury at 62 g/ha,[8]; 62 g ai/ha,85%
same,plant injury at 125 g/ha,[8]; 125 g ai/ha,95%
same,plant injury at 250 g/ha,[8]; 250 g ai/ha,95%
same,pest or weed control at 31 g/ha,[9]; 31 g ai/ha,20%
same,pest or weed control at 62 g/ha,[9]; 62 g ai/ha,35%
same,pest or weed control at 125 g/ha,[9]; 125 g ai/ha,55%
same,pest or weed control at 250 g/ha,[9]; 250 g ai/ha,90%
same,Cocklebur plant response rating,"[10]; 31 g ai/ha, scale 0 to 100 (0 no effect, 100 complete control)",0
same,"Plant response rating, Cocklebur",[10]; 125 g ai/ha,0
same,"Plant response rating, Cocklebur",[10]; 250 g ai/ha,50
same,pest or weed control at 31 g/ha,[11]; [14],30%
same,pest or weed control at 62 g/ha,[11]; [15],40%
same,pest or weed control at 125 g/ha,[11]; [16],60%
same,pest or weed control at 250 g/ha,[11]; [17],60%
same,pest or weed control at 16 g/ha,[11]; [18],20%
same,pest or weed control at 31 g/ha,[12]; [14],80%
same,pest or weed control at 62 g/ha,[12]; [15],90%
same,pest or weed control at 125 g/ha,[12]; [16],95%
same,pest or weed control at 250 g/ha,[12]; [17],98%
same,pest or weed control at 16 g/ha,[12]; [18],70%
same,pest or weed control at 31 g/ha,[13]; [14],60%
same,pest or weed control at 62 g/ha,[13]; [15],75%
same,pest or weed control at 125 g/ha,[13]; [16],90%
same,pest or weed control at 250 g/ha,[13]; [17],100%
same,pest or weed control at 16 g/ha,[13]; [18],50%
